Data as given in ChEMBL document CHEMBL1134429, “The development of a potential single photon emission computed tomography (SPECT) imaging agent for the corticotropin-releasing hormone receptor type” (Bioorg Med Chem Lett, 2001).

Molecular target: T1, Corticotropin-releasing factor receptor 1 (Rattus norvegicus, UniProt P35353)
T1 sequence (P35353 whole entry): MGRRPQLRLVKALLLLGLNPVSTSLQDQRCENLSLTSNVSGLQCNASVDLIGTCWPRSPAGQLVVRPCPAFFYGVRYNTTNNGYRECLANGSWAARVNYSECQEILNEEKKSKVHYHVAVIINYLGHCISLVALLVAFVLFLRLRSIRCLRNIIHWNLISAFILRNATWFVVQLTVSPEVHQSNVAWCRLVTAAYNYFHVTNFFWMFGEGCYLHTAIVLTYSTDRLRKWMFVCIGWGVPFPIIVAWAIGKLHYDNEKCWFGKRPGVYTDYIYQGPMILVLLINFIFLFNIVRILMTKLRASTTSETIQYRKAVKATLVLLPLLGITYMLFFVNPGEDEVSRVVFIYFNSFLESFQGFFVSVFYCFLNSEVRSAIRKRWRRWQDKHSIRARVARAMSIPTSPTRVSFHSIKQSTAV
Test: Binding affinity towards Corticotropin releasing hormone receptor type 1 of rat cerebellum using [125I]Tyr-sauvagine as radioligand.
Assay type: tissue-based

CCCN(CC1CC1)c1nc(C)nc(Nc2c(Cl)cc(I)cc2Cl)c1Cl showed a Ki of 0.014 µM.

With CCCN(CC1CC1)c1nc(C)nc(Nc2c(Cl)cc(Cl)cc2Cl)c1Cl the Ki was 0.031 µM.
